Measurements taken from article PMC11808136, “Screening and identification of host signaling pathways for alleviating influenza-induced production of pro-inflammatory cytokines, IP-10, IL-8, and MCP-1, using a U937 cell-based influenza model” (Frontiers in Microbiology, 2025).
Where two headings read alike, the source gives them in different places.

Tests used:
[1] = tested on: IL-8 production in influenza virus-infected U937 cells (H1N1); test: cells; type: cell-based, Human; conditions: for EC50: read-out: EC50 IL-8
[2] = tested on: influenza virus infection; set-up: method as in Florence et al., 2018; Chen et al., 2019; conditions: without compromising viral titers; ref Florence et al., 2018; Chen et al., 2019; cited from earlier work
in vitro = conditions: human
[3] = tested on: IP-10 production in influenza virus-infected U937 cells (H1N1); test: cells; type: cell-based; conditions: for EC50: read-out: EC50 IP-10
[4] = tested on: MCP-1 production in influenza virus-infected U937 cells (H1N1); test: cells; type: cell-based; conditions: for EC50: read-out: EC50 MCP-1; for IC50: read-out: IC50 MCP-1
[5] = tested on: phosphorylation of p38 (p-p38); test: Western blot of phosphorylated p38 in influenza-infected U937 cells; type: cell-based, Human; conditions: for IC50: Homo sapiens, U-937, read-out: IC50 p-p38
Experimental: (§1) Figure 6 TKIs repress cytokine production by suppressing the p38 pathway. […] Cells were lysed 24 h post-infection, and the levels of phosphorylated p38 and ERK (p-p38 and p-ERK) and total p38 and ERK were assessed by western blot. A quantification of phosphorylated p38 levels for each drug treatment was included in the right panel of each figure.
(§2) Cells were homogenized in RIPA lysis buffer containing a 1% protease inhibitor cocktail (Roche) to extract total protein. Equal amounts of protein homogenates were separated by SDS-PAGE (Bio-Rad) and transferred onto polyvinylidene difluoride membranes (pore size […]; Bio-Rad). The membranes were then blotted with monoclonal antibodies against GAPDH (1:1000, ZSGB-BIO), p38, phosphor-p38, ERK, phospho-ERK, STAT1, phosphor-STAT1 (1:1000; Cell Signaling Technology), STAT3, and phosphor-STAT3 (1:1000; Cell Signaling Technology), respectively. Protein levels were detected with horseradish peroxidase-tagged secondary antibodies and enhanced chemiluminescence western blot reagents (Advansta), followed by visualization using an enhanced chemiluminescence system (AlphaEase FluorChem System, Alpha Innotech Corp.). Bands were quantified using ImageJ (Ver. 1.46; NIH, Bethesda, MD).

[6] = tested on: STAT1 phosphorylation (p-STAT1); type: cell-based, Human
[7] = tested on: ERK phosphorylation (p-ERK); test: Western blot of phosphorylated ERK in influenza-infected U937 cells; type: cell-based, Human; conditions: 24 h post-infection, western blot
Experimental: Figure 5 Raf/MEK/ERK and p38 signal pathways are involved in the regulation of cytokines in U937 cells. (A–C) Determination of inhibition rates on IL-8, IP-10, and MCP-1 by each compound in the MAPK group and the distribution of targets between subgroups. U937 cells were infected with influenza A/PuertoRico/8/1934 virus (MOI = 0.1) in the presence of 10 μM of each inhibitor and then incubated at 37°C for 48 h. The distribution of the targets of all the inhibitors in the MAPK group was then analyzed and categorized into subgroups. […] The supernatants were harvested 48 h post-infection, and the levels of IL-8, MCP-1, and IP-10 were measured by AlphaLISA. (E) The cells were treated as in (C) except being lysed 24 h post-infection, and the levels of phosphorylated STAT1, p38, ERK (p-STAT1, p-p38, p-ERK), total STAT1, p38, ERK, and viral protein HA were assessed by western blot. (F) A quantitative analysis of the relative levels of the phosphorylated STAT1, p38, ERK (p-STAT1, p-p38, p-ERK) in (E). The data are representative of at least three independent experiments. n.s. no significance; *p < 0.05; **p < 0.01; ***p < 0.001.
as §1
as §2, with “The membranes were then blotted with monoclonal antibodies against GAPDH (1:1000, ZSGB-BIO), p38, phosphor-p38, ERK, phospho-ERK, STAT1, phosphor-STAT1 (1:1000; Cell Signaling Technology), STAT3, and phosphor-STAT3 (1:1000; Cell Signaling Technology), respectively.” left out

[8] = tested on: IL-8 production in influenza virus-infected U937 cells (H3N2); test: cells; type: cell-based, Human
[9] = tested on: IP-10 production in influenza virus-infected U937 cells (H3N2); test: cells; type: cell-based, Human
[10] = tested on: MCP-1 production in influenza virus-infected U937 cells (H3N2); test: cells; type: cell-based, Human
[11] = tested on: IL-8 production in influenza virus-infected U937 cells (H7N8); test: cells; type: cell-based, Human
[12] = tested on: IP-10 production in influenza virus-infected U937 cells (H7N8); test: cells; type: cell-based, Human
[13] = tested on: MCP-1 production in influenza virus-infected U937 cells (H7N8); test: cells; type: cell-based, Human
JAK2 = molecular target: T1, JAK2 (Homo sapiens, UniProt O60674); test: Cell-free kinase activity assay, JAK2; type: biochemical; conditions: cell-free kinase assay
T1 construct: purchased KinaseProfiler (Eurofin, Brussels, Belgium)

[14] = tested on: STAT3 phosphorylation (p-STAT3); test: Western blot of phosphorylated STAT3 in influenza-infected U937 cells; type: cell-based, Human; conditions: 1 μM ponatinib, 24 h
Experimental: Figure 3 JAK is essential for regulating the production of pro-inflammatory cytokines induced by influenza infection in U937 cells. Inhibition rates on IL-8 (A), IP-10 (B), and MCP-1 (C) by each compound in the PTK group are categorized based on targets. […] The cells were then lysed after 24 h incubation at 37°C, and the levels of phosphorylated STAT1 (p-STAT1), total STAT1, phosphorylated STAT3 (p-STAT3), and total STAT3 were assessed by western blot.
as §2

JAK1 = JAK1 (Homo sapiens, UniProt P23458); test: Cell-free kinase activity assay, JAK1; conditions: cell-free kinase assay
[15] = Homo sapiens, U-937, secondary screen, Supplemental Table 1
[16] = secondary screen, Supplemental Table 1

T1 sequence (O60674 whole entry): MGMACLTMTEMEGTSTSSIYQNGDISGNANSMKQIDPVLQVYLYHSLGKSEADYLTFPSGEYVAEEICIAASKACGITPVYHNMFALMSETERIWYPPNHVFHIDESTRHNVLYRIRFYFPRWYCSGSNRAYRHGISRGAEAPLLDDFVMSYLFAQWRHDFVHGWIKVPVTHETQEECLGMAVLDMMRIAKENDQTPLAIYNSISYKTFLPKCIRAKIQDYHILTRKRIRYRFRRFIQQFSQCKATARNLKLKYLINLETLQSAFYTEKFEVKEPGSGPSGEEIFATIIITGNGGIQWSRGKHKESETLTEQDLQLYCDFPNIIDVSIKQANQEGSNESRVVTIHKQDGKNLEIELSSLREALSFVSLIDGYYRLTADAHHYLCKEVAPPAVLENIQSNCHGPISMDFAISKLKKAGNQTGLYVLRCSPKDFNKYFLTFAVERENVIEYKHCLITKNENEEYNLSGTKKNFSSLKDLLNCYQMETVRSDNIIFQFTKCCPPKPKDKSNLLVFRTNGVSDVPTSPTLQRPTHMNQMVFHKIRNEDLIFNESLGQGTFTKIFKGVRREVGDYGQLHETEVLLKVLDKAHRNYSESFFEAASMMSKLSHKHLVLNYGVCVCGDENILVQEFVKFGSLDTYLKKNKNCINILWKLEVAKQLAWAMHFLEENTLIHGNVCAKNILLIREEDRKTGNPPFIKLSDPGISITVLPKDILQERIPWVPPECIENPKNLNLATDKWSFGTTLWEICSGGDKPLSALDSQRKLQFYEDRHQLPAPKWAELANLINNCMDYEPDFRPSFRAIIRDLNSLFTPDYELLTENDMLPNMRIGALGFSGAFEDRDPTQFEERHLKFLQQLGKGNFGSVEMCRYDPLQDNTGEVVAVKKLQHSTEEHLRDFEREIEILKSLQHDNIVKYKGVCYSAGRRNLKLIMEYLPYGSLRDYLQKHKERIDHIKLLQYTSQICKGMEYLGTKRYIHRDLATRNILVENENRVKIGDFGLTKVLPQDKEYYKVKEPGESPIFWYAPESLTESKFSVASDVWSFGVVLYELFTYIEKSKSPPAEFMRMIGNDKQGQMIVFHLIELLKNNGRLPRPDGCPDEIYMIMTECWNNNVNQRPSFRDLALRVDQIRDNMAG
Chain of JAK1 (P23458 whole entry): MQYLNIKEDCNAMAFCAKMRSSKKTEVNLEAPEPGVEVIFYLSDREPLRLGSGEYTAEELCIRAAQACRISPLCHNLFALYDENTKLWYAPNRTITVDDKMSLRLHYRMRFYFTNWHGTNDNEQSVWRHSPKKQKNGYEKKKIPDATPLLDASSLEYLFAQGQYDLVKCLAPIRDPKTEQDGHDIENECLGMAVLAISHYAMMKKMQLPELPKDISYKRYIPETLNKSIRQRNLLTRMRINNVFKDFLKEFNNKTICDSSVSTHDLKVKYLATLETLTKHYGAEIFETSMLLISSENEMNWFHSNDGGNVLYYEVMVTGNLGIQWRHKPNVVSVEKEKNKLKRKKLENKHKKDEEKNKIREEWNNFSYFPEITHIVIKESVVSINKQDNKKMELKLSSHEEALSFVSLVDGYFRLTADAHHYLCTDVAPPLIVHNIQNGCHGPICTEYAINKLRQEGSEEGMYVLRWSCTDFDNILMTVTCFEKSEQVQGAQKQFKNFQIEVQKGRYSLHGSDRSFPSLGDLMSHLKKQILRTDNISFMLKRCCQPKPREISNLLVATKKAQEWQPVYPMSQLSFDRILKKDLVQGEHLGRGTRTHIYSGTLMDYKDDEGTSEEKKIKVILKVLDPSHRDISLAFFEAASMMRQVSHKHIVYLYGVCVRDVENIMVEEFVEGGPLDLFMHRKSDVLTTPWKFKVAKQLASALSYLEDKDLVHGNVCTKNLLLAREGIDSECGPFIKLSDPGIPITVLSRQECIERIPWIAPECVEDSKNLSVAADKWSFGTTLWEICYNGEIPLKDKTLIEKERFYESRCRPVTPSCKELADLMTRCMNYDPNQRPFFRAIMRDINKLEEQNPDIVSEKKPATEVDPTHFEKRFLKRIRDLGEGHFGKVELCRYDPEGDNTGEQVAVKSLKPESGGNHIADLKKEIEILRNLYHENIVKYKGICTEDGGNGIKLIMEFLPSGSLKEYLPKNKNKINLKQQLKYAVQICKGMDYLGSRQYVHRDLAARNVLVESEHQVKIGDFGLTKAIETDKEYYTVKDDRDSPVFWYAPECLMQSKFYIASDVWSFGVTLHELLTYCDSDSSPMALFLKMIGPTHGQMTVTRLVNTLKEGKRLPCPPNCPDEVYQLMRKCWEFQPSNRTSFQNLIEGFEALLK

For `C=CC(=O)N1CCC[C@@H](n2nc(-c3ccc(Oc4ccccc4)cc3)c3c(N)ncnc32)C1` [Ibrutinib (PCI-32765), Ibrutinib], the EC50 [1, 15] is given as 1220 nM, the “protection of mice from lethal influenza infection” value [2] is given as “protecting mice from lethal influenza infection” and the CC50 (in vitro; CC50, secondary screen, Supplemental Table 1) is given as over 100000 nM.
With `O=C(NOC[C@H](O)CO)c1ccc(F)c(F)c1Nc1ccc(I)cc1F` [PD0325901] the “secretion of IL-8” value [1] was “inhibited”, the IC50 ([1]; Homo sapiens, U-937) was under 20 nM and the EC50 [1, 15] was under 5 nM. The EC50 [3, 15] was 690 nM, the “secretion of IP-10” value ([3]; at high concentrations, 48 h post-infection) was “inhibit” and the EC50 [4, 15] was 100 nM. The IC50 ([4]; Homo sapiens, U-937) was under 20 nM, the “secretion of MCP-1” value ([4]; different concentrations of PD0325901, 48 h post-infection) was “inhibited” and the “phosphorylation of p38” value ([5]; 24 h post-infection, western blot, cellular model) was “suppress”. The IC50 [5] was 10 nM, the “phosphorylation of STAT1 proteins” value [6] was “inhibit” and the “phosphorylation level of ERK” value [7] was “decreased”. The CC50 (in vitro) was over 100000 nM.
In the case of `Cc1ccc(C(=O)Nc2ccc(CN3CCN(C)CC3)c(C(F)(F)F)c2)cc1C#Cc1cnc2cccnn12` [Ponatinib], the IC50 ([1]; Homo sapiens, U-937) is reported as 300 nM, the EC50 [1, 15] is reported as under 5 nM and the EC50 ([1]; Homo sapiens, U-937) is reported as 294 nM. It also gave an EC50 [3, 15] of 60 nM, an EC50 ([3]; Homo sapiens, U-937) of 270 nM and an IC50 ([3]; Homo sapiens, U-937, read-out: IC50 IP-10) of 250 nM. The EC50 [4, 15] was under 5 nM, the EC50 ([4]; Homo sapiens, U-937) was 385 nM and the IC50 ([4]; Homo sapiens, U-937) was 400 nM. For the same compound, the EC50 ([8]; Homo sapiens, U-937) was 714 nM, the EC50 ([9]; Homo sapiens, U-937) was 59 nM and the EC50 ([10]; Homo sapiens, U-937) was 625 nM. The EC50 ([11]; Homo sapiens, U-937, read-out: EC50 IL-8) was 833 nM, the EC50 ([12]; Homo sapiens, U-937, read-out: EC50 IP-10) was 833 nM and the EC50 ([13]; Homo sapiens, U-937, read-out: EC50 MCP-1) was 345 nM. The JAK2 activity (JAK2) was “weaker effect”, the IC50 [5] was 180 nM and the STAT1 phosphorylation levels [6] was “significantly reduced”. For the same compound, the “phosphorylation level of ERK” value [7] was “promoted”, the STAT3 phosphorylation [14] was “limited inhibition” and the maximum non-toxic concentration (U937 cells; human) was 1 µM. For the same compound, the “protection of mice from lethal influenza infection” value [2] was “protecting mice from lethal influenza infection” and the JAK1 activity (JAK1) was “directly inhibit”.
In the case of `COc1cc(Nc2ncc(F)c(Nc3ccc4c(n3)NC(=O)C(C)(C)O4)n2)cc(OC)c1OC` [R406], the EC50 [1] is reported as 130 nM, the EC50 [1, 16] is reported as 820 nM and the EC50 ([3]; U937 cells infected with H1N1) is reported as 431 nM. It also gave an EC50 [3, 16] of 3500 nM, an EC50 ([4]; U937 cells infected with H1N1) of 240 nM and an EC50 [4, 16] of 270 nM. The EC50 [8] was 690 nM, the EC50 [9] was 5 nM and the EC50 [10] was 62 nM. The EC50 ([11]; read-out: EC50 IL-8) was 88 nM, the EC50 ([12]; read-out: EC50 IP-10) was 90 nM and the EC50 ([13]; read-out: EC50 MCP-1) was 35 nM. It also gave a CC50 (U937 cells) of over 100000 nM, a CC50 (U937 cells; U937 cells, Table 1 section H1N1) of over 100000 nM and a CC50 (U937 cells; U937 cells, Table 1 section H3N2) of over 100000 nM. The CC50 (U937 cells; [16]) was over 100000 nM.
